Source: patent US20260091138A1, “VARIANTS OF COAGULATION FACTOR VIII AND USES THEREOF” (Seattle Children’s Hospital d/b/a Seattle Children’s …, priority 2022, published 2026)
Entries after “also recorded” stand apart in the source; their conditions may differ. No end group written: not given here. Man6GlcNAc2 = high-mannose N-glycan (six mannose on two GlcNAc); GlcNAc = N-acetyl-glucosamine (single GlcNAc)

Assays:
[1] = tested on: CD4+ T-cells in splenocytes isolated from FVIII-primed HA mice; assay: FVIII-specific CD4+ T-cell proliferation assay; type: cell-based, mouse; conditions: for effect of peptide on CD4+ T-cell proliferation (in words): peptides 0.1 μM to 10 μM; for CD4+ T-cell proliferation: 96 hours, background subtracted
Protocol: (§1) CD4^+ T-cell Proliferation Assay. Mice with high titer anti-FVIII inhibitors were generated as described in the Supplemental Methods. Mouse splenocytes were isolated and stained with BD Horizon™ violet cell proliferation dye 450 (VPD450) (BD Biosciences). The labeled splenocytes were cultured and stimulated by adding FVIII as a positive proliferation control, Factor IX as a nonspecific antigen control, or peptides, either glycosylated or non-glycosylated, corresponding to site N2118. Mannan (0.1, 1, and 10 μM, respectively) was added in mannan inhibition experiments. After 96 hours, cells were stained with anti-mouse CD4 and Fixable Viability Stain (Fisher Scientific) and analyzed by flow cytometry (BDT LSR II analyzer (Fisher Scientific)). The enhancement of proliferation was calculated by subtracting the background levels in non-stimulated cells.
Generation of hemophilia A mice with high-titer inhibitors. Anti-FVIII inhibitor mice were generated by priming the mice with 3 units (U) of recombinant full-length FVIII in 200 uL PBS 3× a week for four weeks. Mice were then sacrificed on week 5 for spleen collection or boosted one-week prior to spleen collection. Blood was drawn via retro-orbital bleed on the day of sacrifice in the same manner as before in order to measure IgG titer via enzyme-linked immunosorbent assay (ELISA).

HA mice [2] = assay: Anti-FVIII inhibitor titers by Bethesda assay after plasmid-mediated gene transfer; type: in vivo, mouse
Protocol: (§2) Delivery of plasmids carrying BDD-FVIII and its glycosylation variants genes into HA mice. Male HA mice with a FVIII exon 16 knockout in an Sv129/BL6 mixed background between the ages of 8-14 weeks were used in all experiments. Mice were injected with liver-specific plasmids carrying BDD-FVIII and its glycosylation variants genes (FIG. 2) via hydrodynamic injection at a concentration of 25 μg/mL and a volume (ml) equal to 9% the body weight of the mouse (g). A second challenge (SC) of the same plasmids via hydrodynamic injection was performed on Day 86 to elicit robust secondary immune responses. Blood was collected by retro-orbital bleed in one-tenth volume of 3.8% sodium citrate periodically following plasmid injections.

HA mice [3] = assay: Total anti-FVIII IgG ELISA after plasmid-mediated gene transfer; type: in vivo, mouse
Protocol: as §2
Supplemental Methods. Measurement of total anti-FVIII IgG. 96 well flat bottom ELISA plates (Corning, Kennebunk, ME) were coated overnight at 4° C. with 0.44 U FVIII/well in coating buffer. Plates were then incubated with blocking buffer (1×Tris-Buffered Saline (TBS), 0.1% Tween-20, and 20% non-fat milk for 1 hour at 37° C. Plates were washed three times with wash buffer I 1×TBS and 0.1% Tween-20) between incubation steps. […] Concentrations of anti-FVIII IgG were evaluated by interpolation against the linear range on a standard curve created using mouse isotype control (Thermo Scientific) that was run in duplicate alongside samples on all plates.

HA mice [4] = assay: FVIII functional activity (aPTT) and FVIII:Ag after hydrodynamic injection of BDD-FVIII and glycosylation variant plasmids; type: in vivo, mouse; conditions: one-week post hydrodynamic plasmid injection, average ± SD
Protocol: as §2
FVIII antigen (FVIII:Ag) ELISA. FVIII:Ag levels in mouse plasma post hydrodynamic injection with FVIII plasmids were determined by ELISA using murine anti-FVIII antibody (GMA-8020, Green Mountain Antibody, Burlington, VT) and biotin-labeled murine anti-FVIII antibody (GMA-8015, Green Mountain Antibody, Burlington, VT).

[5] = tested on: CD4+ T-cells in splenocytes isolated from FVIII-primed HA mice; assay: Mannan inhibition in FVIII-specific T cell proliferation assay; type: cell-based, mouse
Protocol: as §1

Q: With “D2108GKKWQTYRGN2118STGT2122 (DGKKWQTYRGN(Man6GlcNAc2)STGT; also: mannosylated; UniProt P00451 2127-2141, looked up, fragment) [2118MP3, mannosylated overlapping 15-mer Peptide 3]” as the substance, how does the “effect of peptide on CD4+ T-cell proliferation (in words)” value (“effect of peptide” for short) [1] read?
A: Its value is “little to no proliferation”.

Q: How did the “CD4+ T-cell proliferation response to protein antigen controls” value ([1]; increasing doses of FVIII, FIX as nonspecific antigen control) turn out when “FIX: Factor IX as a nonspecific antigen control [reference compound]” was run?
A: Its value is “no response”.

Q: Which “effect of peptide” value [1] does the source give for “K2111WQTYRGN2118STGTLMV2125 (KWQTYRGN(GlcNAc)STGTLMV; UniProt P00451 2130-2144, looked up, fragment) [2118GlcP1, Peptide 1 with a single GlcNAc residue at N2118]” here?
A: Its value is “negligible effects”.

Q: How did the “effect of peptide” value [1] turn out when “K2111WQTYRGN2118STGTLMV2125 (KWQTYRGNSTGTLMV; non-glycosylated; UniProt P00451 2130-2144, looked up, fragment) [2118NGP1, non-glycosylated 15-mer FVIII peptide centered around site N2118]” was run?
A: Its value is “negligible effects”.

Q: And the “effect of peptide” value ([1]; listed as NGP1)?
A: The value was “negligible effects; also recorded: nearly no proliferation”.

Q: With K2111WQTYRGN2118STGTLMV2125 [2118MP1] as the substance, how does the “CD4+ T-cell proliferation” value ([1]; peptide 10 μM) read?
A: The value was 4.2±1.3%.

Q: And the “effect of peptide” value ([1]; listed as MP1)?
A: The value was “increased proliferation levels; also recorded: Enhanced proliferation”.

Q: With “N2118Q: BDD-FVIII plasmid variant with N2118Q mutation in the C1 domain eliminating the 2118 glycosylation site (SEQ ID NO: 23)” as the substance, how does the “inhibitor responses to FVIII following first plasmid challenge compared to WT BDD-FVIII plasmid” value (HA mice [2]; after first plasmid challenge) read?
A: The value was “trend of decreased inhibitor responses”.

Q: And the “inhibitor titer / inhibitor responses post-second challenge” value (HA mice [2]; after second plasmid challenge, compared with WT BDD-FVIII)?
A: The value was “significantly lower inhibitor titer; also recorded: statistically significant lower inhibitor responses”.

Q: What about the “inhibitor titers (Bethesda assay) compared to other groups” value (HA mice [2]; day 56, after first plasmid transfer) of the same substance?
A: Its value is “lower inhibitor titers; also recorded: Low inhibitor titers”.

Q: What about the “anti-FVIII IgG level compared to the other three groups” value (HA mice [3]; peak around day 56, after first plasmid transfer) of the same substance?
A: The value was “lower antibody levels; also recorded: lower IgG level”.

Q: What about the “drastic increase in anti-FVIII levels after the second challenge” value (HA mice [3]; second plasmid challenge on day 84, hydrodynamic injection) of the same substance?
A: Its value is “did not; also recorded: remained at a low level”.

Q: What about the “FVIII functional activity levels in treated mouse plasma (average activity)” value (HA mice [4]) of the same substance?
A: The value was 223±77%.

Q: Which results are given for “T2114YRGN2118STGTLMVFFG2128 (TYRGN(Man6GlcNAc2)STGTLMVFFG; also: mannosylated; UniProt P00451 2133-2147, looked up, fragment) [2118MP2, mannosylated overlapping 15-mer Peptide 2]”?
A: CD4+ T-cell proliferation ([1]; peptide 1 μM): 2.9±0.6%; CD4+ T-cell proliferation ([1]; peptide 10 μM): 5.5±2.0%; effect of peptide on CD4+ T-cell proliferation (in words) ([1]; listed as MP2): Enhanced proliferation; also recorded: higher proliferation compared to MP1

Q: “T2114YRGN2118STGTLMVFFG2128 (TYRGNSTGTLMVFFG; non-glycosylated; UniProt P00451 2133-2147, looked up, fragment) [2118NGP2, non-glycosylated counterpart of 2118MP2]” was tested. Which “effect of peptide” value [1] did it give?
A: Its value is “nearly no proliferation”.

Q: For mannan, which “inhibition of T cell proliferation by mannan” value (shortened to “inhibition”) ([5]; in response to 0.1 U/ml FVIII) is on record?
A: Its value is “only partially inhibited”.

Q: What about the “inhibition” value ([5]; in response to 1 U/ml or 10 U/ml FVIII) of the same substance?
A: The value was “no inhibition”.

Q: What about the “inhibition” value ([5]; in response to MP1 at 0.1 and 1 μM) of the same substance?
A: Its value is “inhibited”.

Q: What about the “inhibition” value ([5]; in response to all three concentrations of 2118MP1) of the same substance?
A: Its value is “inhibited”.
